Data: patent US10781226B2, “Photoactivatable cancer prodrug” (Texas State University, priority 2017, dated 2020)
In brackets after ≈: the same amount, converted by molar mass.

Tests used:
[1] = system: A375, A431, A549, MRC-5 cells; test: Photocytotoxicity assay, summary across cell lines; format: cell-based
tubulin = conditions: polymerization enhancer control
Description: Raw fluorescence was normalized by initial fluorescence for each sample. Samples consists of the caged drug (not irradiated), the caged drug irradiated with green light, and the caged drug irradiated with blue light.
In this assay, increased fluorescence indicates tubulin polymerization.

[2] = Solubility in demineralized water; format: physicochemical; conditions: read-out: maximum solubility

For `F[P-](F)(F)(F)(F)F.F[P-](F)(F)(F)(F)F.O.[Ru+2].c1ccc(-c2cccc(-c3ccccn3)n2)nc1.c1ccc(-c2ccccn2)nc1` [[3](PF6)2], the “activity across all tested cell lines” value ([1]; all tested cell lines) was “no activity”.

In the case of `CC(=O)O[C@H]1C(=O)[C@@]2(C)[C@H]([C@H](OC(=O)c3ccccc3)[C@]3(O)C[C@H](OC(=O)[C@H](O)[C@@H](NC(=O)c4ccccc4)c4ccccc4)C(C)=C1C3(C)C)[C@]1(OC(C)=O)CO[C@@H]1C[C@@H]2O` [paclitaxel, reference compound], the tubulin polymerization (tubulin) is reported as “induces rapid polymerization of tubulin”.

`CSCCCc1nc(=O)c2c(-c3ccccc3)c(C(=O)c3ccccc3)[nH]c2[nH]1` [compound 1] showed a solubility [2] of 10 µM (≈ 4.04 µg/mL).

Compound `[NH2][Pt]([NH2])([Cl])[Cl]` [CDDP, cisplatin] has an EC50 ([1]; range across all tested cell lines) of 0.85 to 3.06 µM.
